Patent US20020132364A1, “Quant-screentm chemiluminescent assays” (priority 2001, published 2002)
Numbered stars: 1 amine (or outer) side, 2 acyl side, 3 side chain; on linkers, the order of the positions; unused ones are H or OH. Bridge positions count the residues as written; N and C are the ends. Square brackets hold non-standard residues; d marks the D form. Peptide text beside a SMILES is read from it. I, II: the chains in the order shown. Actinocin(9to1) = Cc1c2oc3c(C)ccc(C(=O)[*:1])c3nc-2c(C(=O)[*:2])c(N)c1=O; NMeV = CN[C@H](C(=O)O)C(C)C; Sar = CNCC(=O)O

Tested on: Saccharomyces cerevisiae INVSc1 yeast cells
Test: Yeast growth inhibition experiment (Quant-Screen Yeast Assay and OD600)
Format: cell-based
Conditions: INVSc1 in YPD medium, 6 hours at 30° C., different concentrations
Description: Serial dilutions of a yeast cell suspension prepared in culture media was placed in each well of a 96-well plate (100 μl/well). Next, 100 μl of reaction buffer containing the CDP-Star® substrate was added to each well. The light emission was then immediately measured in a luminometer (TR717®) (1 sec/well) or NorthStar® (60 sec/plate).
An equivalent aliquot of yeast cell suspension (INVSc1) were inoculated into tubes with 2 ml of minimum medium containing various concentrations of leucine and were grown overnight at 30° C. with shaking. The overnight cultures were then measured by a spectrophotometer at 600 nm to estimate cell density. Next, each of the overnight cultures was transferred (100 μl/well) into a 96-well microplate in triplicate. An equal volume of reaction buffer was added. The plate was placed in TR717™ (a luminometer) to measure total light emission.
100 μof log phase growing yeast cells, INVSc1, were inoculated into tubes with 1 ml of YPD medium containing different concentrations of actinomycin D, a […]. The cultures were grown at 30° C. with shaking for 6 hours. The cultures were measured for OD600 in a spectrophotometer. Next, the cells were transferred (100 μl/well) in triplicate in a 96-well microplate. The assay was performed as in the Growth Stimulation Experiment set forth above.

In the case of `Cc1c2oc3c(C)ccc(C(=O)N[C@@H]4C(=O)N[C@H](C(C)C)C(=O)N5CCC[C@H]5C(=O)N(C)CC(=O)N(C)[C@@H](C(C)C)C(=O)O[C@@H]4C)c3nc-2c(C(=O)N[C@@H]2C(=O)N[C@H](C(C)C)C(=O)N3CCC[C@H]3C(=O)N(C)CC(=O)N(C)[C@@H](C(C)C)C(=O)O[C@@H]2C)c(N)c1=O` [actinomycin D] (I: T[dV]P[Sar][NMeV] / II: T[dV]P[Sar][NMeV]; ester I:1-I:C, II:1-II:C; linker I:N-II:N via Actinocin(9to1)), the “O.D. measurement (OD600)” value is reported as “declined with increasing concentrations” and the “signal intensity (Quant-Screen Yeast Assay, endogenous alkaline phosphatase, light emission)” value is reported as “declined with increasing concentrations”.
